The values that follow come from US11591297B2, “Compound having PD-L1 expression-suppressing action” (TOHOKU UNIVERSITY, priority 2019, dated 2023).

pIC50: −log10 of the molar value.

The assay relates to Jurkat cells. The experiment in a line: Caspase 3/7 assay: apoptosis of Jurkat cells co-cultured with IFN-γ-treated A549 cells (PD-1/PD-L1 binding). Particulars: Homo sapiens; for pIC50: Jurkat cells co-cultured with A549 cells pre-cultured with IFN-γ and test compound, read-out: IC50 (50% inhibition concentration of Caspase 3/7 activity). It counts as cell-based. The text has this:
The supernatants of each culture liquid containing A549 cells expressing PD-L1 pre-cultured with the addition of IFN-γ or human acute T-cell leukemia cell-derived Jurkat cells expressing PD-1 pre-cultured with the addition of Phorbol 12-myristate 13-Acetate (hereinafter, referred to as “PMA”: Sigma Cat #1585) and phytohemagglutinin-L (hereinafter, referred to as “PHA-L”: Roche Cat #11249738001) were removed, the culture liquids were co-cultured in new medium. The Caspase 3/7 activity of the co-cultured Jurkat cells was measured, and the measured activity was used as an index of apoptosis. Each test compound was added into the A549 cell culture liquid during the pre-culture.
(1) A549 cells were suspended in DMEM medium at 1×10^5 cells/mL to prepare an A549 cell suspension, and the A549 cell suspension was dispensed into each well a 6 well plate in an amount of 3 mL.
(2) Separately, Jurkat cells were suspended in RPMI medium at 3×10^5 cells/mL to prepare a Jurkat cell suspension, and the Jurkat cell suspension was dispensed into a T25 flask in an amount of 5 mL.
(3) The 6-well plate of the above step (1) and the T25 flask of the above step (2) were incubated together in a CO2 incubator (at 37° C. and 5% CO2) for 24±2 hours.
(1) To 3 mL of the A549 cell culture liquid were added IFN-γ (25 ng/mL) and a test compound, and the cell culture liquid was continuously cultured. The 50 mmol/L solution of the test compound in DMSO was diluted to 100 times with DMEM medium, and then the diluted solution was added as test compound group in an amount of 3 μL, 6 μL or 12 μL (final concentration: 0.5 μmol/L, 1.0 μmol/L or 2 μmol/L). In the control group, DMSO diluted to 100 times with DMEM medium was added in an amount of 12 μL. (2) Separately, to the Jurkat cell culture liquid were added PMA (final concentration: 12.5 ng/mL) and PHA (final concentration: 250 ng/mL), and the cell culture liquid was continuously cultured. [Day 3]
Cells were separated from A549 cell culture liquid with Cell Dissociation Solution Non-enzymatic (Sigma Cat No. C5914-100ML), and the cell culture liquid was centrifuged at 300×g for 5 minutes and the supernatant thereof was removed, and then the cells were suspended in RPMI medium at 4×10^5 cells/mL to prepare an A549 cell suspension.
The Jurkat cell culture liquid was centrifuged at 300×g for 5 minutes and the supernatant thereof was removed, and then the cells therein were suspended in RPMI medium at 4×10^4 cells/mL to prepare a Jurkat cell suspension.
0.25 mL of the prepared A549 cell suspension and 0.25 mL of the prepared Jurkat cell suspension (the ratio of the number of the cells is 10:1) were added into each well in a 24-well plate. 0.25 mL of A549 cells and 0.25 mL of RPMI medium were mixed and the mixture was cultured at 37° C. and 5% CO2 to prepare an A549 blank containing only A549 cells which is not co-cultured with Jurkat cells. The PD-L1 expression in A549 cells after 2 days from IFN-γ treatment and the PD-1 expression in Jurkat cells stimulated with PMA and PHA were confirmed by staining the cells with anti-CD274-PC7 antibody (PD-L1) or anti-CD279-FITC antibody (PD-1, eBioscience Cat No. 11-9969-42) in a similar procedure to that of Test Example 2 and measuring the stained cells with a flow cytometer.
The cells were cultured under the following 6 conditions.
(IF−Comp−): Co-culture of A549 cells pre-cultured without the addition of IFN-γ and the test compound as well as Jurkat cells
(IF+Comp−): Co-culture of A549 cells pre-cultured with the addition of IFN-γ and no test compound as well as Jurkat cells
(IF+Comp+): Co-culture of A549 cells pre-cultured with the addition of IFN-γ and the test compound as well as Jurkat cells
(A:IF−Comp−): Culture of only […] A549 cells pre-cultured without the addition of IFN-γ and the test compound
(A:IF+Comp−): Culture of only A549 cells pre-cultured with the addition of IFN-γ and no test compound […]

Turning to `COc1cc(C(=O)N2CCCC(C(=O)Nc3ccc(Oc4ccc(C(F)(F)F)cc4)cc3)C2)ccc1O` (stereo not shown) [Example 3, 1-(4-Hydroxy-3-methoxybenzoyl)-N-(4-(4-(trifluoromethyl)phenoxy)phenyl)piperidine-3-carboxamide], the pIC50 is 6.06.

`O=C(Nc1ccc(Oc2ccc(C(F)(F)F)cc2)cc1)C1CCCN(C(=O)c2ccc([N+](=O)[O-])cc2)C1` (stereo not shown) [Example 2, 1-(4-Nitrobenzoyl)-N-(4-(4-(trifluoromethyl)phenoxy)phenyl) piperidine-3-carboxamide]: the pIC50 was 5.96.

On to `COc1cc(C(=O)N2CCCC(C(=O)Nc3ccc(Oc4ccc(S(F)(F)(F)(F)F)cc4)cc3)C2)ccc1O` (stereo not shown) [Example 6, 1-(4-Hydroxy-3-methoxybenzoyl)-N-(4-(4-(pentafluorosulfanyl)phenoxy)phenyl)piperidine-3-carboxamide], for which the pIC50 is 6.13.

On to `O=C(Nc1ccc(Oc2ccc(S(F)(F)(F)(F)F)cc2)cc1)C1CCCN(C(=O)c2ccc([N+](=O)[O-])cc2)C1` (stereo not shown) [Example 5, 1-(4-Nitrobenzoyl)-N-(4-(4-(pentafluorosulfanyl)phenoxy)phenyl)piperidine-3-carboxamide], for which the pIC50 is 6.28. In addition, the activity at 0.25 µM (Jurkat, 0.25 μM, control (DMSO) defined as 100%) stood at 81.5%. Where the note is “Jurkat, 0.5 μM, control (DMSO) defined as 100%”, this compound had an activity at 0.5 µM of 55.3%. This compound also registered an activity at 1 µM (Jurkat, 1 μM, control (DMSO) defined as 100%) of 32.1%.
